Results from patent EP4603105A1, “PHARMACEUTICAL COMPOSITION CONTAINING CYCLIC COMPOUND HAVING SELECTIVE KRAS INHIBITORY EFFECT AGAINST HRAS AND NRAS” (CHUGAI SEIYAKU KABUSHIKI KAISHA, priority 2022, dated 2024).
Where a SMILES comes first, the peptide text is derived from it. Bridges are numbered along the chain shown (N, C = ends). [ ]: non-standard residue; d: D form. The star is where a group is joined. hPhe(3-Cl-4-CF3) = N[C@@H](CCc1ccc(C(F)(F)F)c(Cl)c1)C(=O)O; NPrPhe(4-CF3) = CCCN[C@@H](Cc1ccc(C(F)(F)F)cc1)C(=O)O; NMeAbu(4,4,4-F3) = CN[C@@H](CC(F)(F)F)C(=O)O; NMeGly(cPent) = CN[C@H](C(=O)O)C1CCCC1; Pro(4,4-Me2) = CC1(C)CN[C@H](C(=O)O)C1; Hyp = O=C(O)[C@@H]1C[C@@H](O)CN1; NMeD = CN[C@@H](CC(=O)O)C(=O)O; NMeL = CN[C@@H](CC(C)C)C(=O)O; Morpholide = C1CN(*)CCO1; NMeA = CN[C@@H](C)C(=O)O; Ac5c = NC1(C(=O)O)CCCC1; Aze = O=C(O)[C@@H]1CCN1; Ac4c = NC1(C(=O)O)CCC1; NEtG = CCNCC(=O)O; Sar = CNCC(=O)O

Key:
[1] = target: HRAS wild-type protein (Homo sapiens, UniProt P01112); test: Binding to HRAS by surface plasmon resonance (SPR), KD and KD ratio to KRAS
How it was run: (§1)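 Biotinylated GDP-bound RAS was captured at about 100–300 RU. Running buffer: HBS pH 7.4, 10 mM MgCl2, 10 µM GDP, 1 mM DTT, 0.01% Tween 20, 4% DMSO.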

[2] = tested on: human lung cancer strain NCI-H441; format: cell-based
How it was run: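 Step one: dispense the test compound in serial DMSO dilutions. Step three: add the reagent and measure […].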

[3] = target: GDP-bound NRAS wild-type protein (Homo sapiens, UniProt P01111); test: Binding to NRAS by surface plasmon resonance (SPR), KD and KD ratio to KRAS
How it was run: as §1

[4] = ratio of KD value for HRAS wild-type protein to KD value for KRAS (SPR)
[5] = ratio of KD value for GDP-bound NRAS wild-type protein to KD value for KRAS (SPR)
[6] = ratio of KD for HRAS wild-type protein to KD for KRAS
[7] = ratio of KD for GDP-bound NRAS wild-type protein to KD for KRAS
[8] = ratio of the KD value with respect to HRAS wild-type protein to the KD value with respect to KRAS
[9] = ratio of the KD value with respect to GDP-bound NRAS wild-type protein to the KD value with respect to KRAS

GDP-bound NRAS wild-type protein, sequence (P01111 whole entry): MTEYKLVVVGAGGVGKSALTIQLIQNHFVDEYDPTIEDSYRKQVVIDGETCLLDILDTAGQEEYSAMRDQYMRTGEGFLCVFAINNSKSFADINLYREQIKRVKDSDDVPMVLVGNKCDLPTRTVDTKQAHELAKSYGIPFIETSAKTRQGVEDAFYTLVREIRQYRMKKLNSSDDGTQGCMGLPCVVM
HRAS wild-type protein, sequence (P01112 whole entry): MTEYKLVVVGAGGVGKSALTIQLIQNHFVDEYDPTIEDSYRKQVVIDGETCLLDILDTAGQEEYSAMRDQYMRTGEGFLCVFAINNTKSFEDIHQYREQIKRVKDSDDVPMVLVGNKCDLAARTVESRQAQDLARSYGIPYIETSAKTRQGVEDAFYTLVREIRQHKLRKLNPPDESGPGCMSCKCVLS

| IC50 [2] [nM] | SMILES | HRAS /KRAS [1, 4] | NRAS /KRAS [3, 5] | HRAS /KRAS [1, 6] | NRAS /KRAS [3, 7] | HRAS /KRAS [1, 8] | NRAS /KRAS [3, 9] |
| --- | --- | --- | --- | --- | --- | --- | --- |
| 4 | CC[C@H](C)[C@@H]1NC(=O)[C@H](CC(C)C)N(C)C(=O)C[C@@H](C(=O)N(C)C)N(C)C(=O)[C@H](C2CCCC2)N(C)C(=O)C2(CC(C)(C)C2)NC(=O)[C@@H]2CCCN2C(=O)[C@H](CCc2cc(F)c(C(F)(F)F)c(F)c2)NC(=O)CN(C)C(=O)[C@H](Cc2ccc(C(F)(F)F)cc2)N2CC/C=C\C[C@@H](C2=O)N(C)C(=O)CN(C)C1=O [PP1727] | A (a compound having 10 or more and less than 20 is denoted as A) | A (a compound having 10 or more and less than 20 is denoted as A) | – | – | – | – |
| 73.9 | CCCN1C(=O)CN(C)C(=O)CN(CC)C(=O)[C@H]([C@@H](C)CC)NC(=O)[C@H](CC(C)C)N(C)C(=O)C[C@@H](C(=O)N2CCOCC2)N(C)C(=O)[C@H](C2CCCC2)N(C)C(=O)C2(CCCC2)NC(=O)CN(C)C(=O)[C@H](CCc2ccc(C(F)(F)F)c(Cl)c2)NC(=O)CN(C)C(=O)[C@@H]1Cc1ccc(C(F)(F)F)cc1 [PP0300] ([NMeL]I[NEtG][Sar][NPrPhe(4-CF3)][Sar][hPhe(3-Cl-4-CF3)][Sar][Ac5c][NMeGly(cPent)][NMeD]-Morpholide; lactam N-11) | – | – | C (A compound having a KD ratio of 0.1 or more and less than 3 is denoted as C) | B (a compound having 3 or more and less than 10 is denoted as B) | – | – |
| 61.2 | CC[C@H](C)[C@@H]1NC(=O)[C@H](CC(C)C)N(C)C(=O)C[C@@H](C(=O)N2CCOCC2)N(C)C(=O)[C@H](C2CCCC2)N(C)C(=O)C2(CCC2)NC(=O)[C@@H]2C[C@@H](OC)CN2C(=O)[C@H](CCc2cc(F)c(C(F)(F)F)c(F)c2)NC(=O)CN(C)C(=O)[C@H](Cc2ccc(C(F)(F)F)cc2)N2CCCCC[C@@H](C2=O)N(C)C(=O)CN(C)C1=O [PP1016] | – | – | B (a compound having 3 or more and less than 10 is denoted as B) | A (a compound having 10 or more and less than 20 is denoted as A) | – | – |
| 2.9 | CCCN1C(=O)[C@@H]2CCN2C(=O)[C@H](C)N(C)C(=O)[C@H]([C@@H](C)CC)NC(=O)[C@H](CC(C)C)N(C)C(=O)C[C@@H](C(=O)N2CCOCC2)N(C)C(=O)[C@H](C2CCCC2)N(C)C(=O)C2(CCCC2)NC(=O)[C@@H]2CC(C)(C)CN2C(=O)[C@H](CCc2ccc(C(F)(F)F)c(Cl)c2)NC(=O)CN(C)C(=O)[C@@H]1Cc1ccc(C(F)(F)F)cc1 [PP0454] ([NMeL]I[NMeA][Aze][NPrPhe(4-CF3)][Sar][hPhe(3-Cl-4-CF3)][Pro(4,4-Me2)][Ac5c][NMeGly(cPent)][NMeD]-Morpholide; lactam N-11) | – | – | – | – | C (A compound having a KD ratio of 0.1 or more and less than 3 is denoted as C) | C (A compound having a KD ratio of 0.1 or more and less than 3 is denoted as C) |
| 18.8 | CCC[C@H]1C(=O)N[C@@H]([C@@H](C)CC)C(=O)N(C)CC(=O)N(C)[C@H]2C/C=C\CCN(C2=O)[C@@H](Cc2ccc(C)cc2)C(=O)N(C)CC(=O)N[C@@H](CCc2ccc3c(C)cn(C)c3c2)C(=O)N2C[C@H](OCC)C[C@H]2C(=O)NC2(CC(C)(C)C2)C(=O)N(C)[C@@H](C2CCCC2)C(=O)N(C)[C@H](C(=O)N(C)C)CC(=O)N1C [PP2899] | – | – | B (a compound having 3 or more and less than 10 is denoted as B) | A (a compound having 10 or more and less than 20 is denoted as A) | – | – |
| 20.2 | CCO[C@@H]1C[C@H]2C(=O)NC3(CCC3)C(=O)N(C)[C@@H](C3CCCC3)C(=O)N(C)[C@H](CC)CC(=O)N(C)[C@@H](CC)C(=O)N[C@@H]([C@@H](C)CC)C(=O)N(C)CC(=O)N(C)[C@H]3C/C=C\CCN(C3=O)[C@@H](Cc3ccc(C(F)(F)F)cc3)C(=O)N(C)CC(=O)N[C@@H](CCc3cc(F)c(C(F)(F)F)c(F)c3)C(=O)N2C1 [PP1625] | B (a compound having 3 or more and less than 10 is denoted as B) | B (a compound having 3 or more and less than 10 is denoted as B) | – | – | – | – |
| 17.8 | CCCOC[C@H]1C(=O)N[C@@H]([C@@H](C)CC)C(=O)N(C)CC(=O)N(C)[C@H]2C/C=C\CCN(C2=O)[C@@H](Cc2ccc(C(F)(F)F)cc2)C(=O)N(C)CC(=O)N[C@@H](CCc2ccc(C(F)(F)F)c(OC)c2)C(=O)N2C[C@@H](C)C[C@H]2C(=O)NC2(CC(C)(C)C2)C(=O)N(C)[C@@H](C2CCCC2)C(=O)N(C)[C@H](C(=O)N(C)CC)CC(=O)N1C [PP1995] | – | – | – | – | B (a compound having 3 or more and less than 10 is denoted as B) | A (a compound having 10 or more and less than 20 is denoted as A) |
| 5 | CC[C@H](C)[C@@H]1NC(=O)[C@H](CC)N(C)C(=O)C[C@@H](C(=O)N(C)C)N(C)C(=O)[C@H](C2CCCC2)N(C)C(=O)C2(CCCC2)N(C)C(=O)[C@@H]2CCCN2C(=O)[C@H](CCc2cc(F)c(C(F)(F)F)c(F)c2)NC(=O)CN(C)C(=O)[C@H](Cc2ccc(C)cc2)N2CC/C=C\C[C@@H](C2=O)N(C)C(=O)CN(C)C1=O [PP1807] | B (a compound having 3 or more and less than 10 is denoted as B) | A (a compound having 10 or more and less than 20 is denoted as A) | – | – | – | – |
| 3.9 | CCCN1C(=O)[C@@H]2CCN2C(=O)[C@H](C)N(C)C(=O)[C@H]([C@@H](C)CC)NC(=O)[C@H](CC(F)(F)F)N(C)C(=O)C[C@@H](C(=O)N2CCOCC2)N(C)C(=O)[C@H](C2CCCC2)N(C)C(=O)C2(CCCC2)NC(=O)[C@@H]2CCCN2C(=O)[C@H](CCc2ccc(C(F)(F)F)c(Cl)c2)NC(=O)CN(C)C(=O)[C@@H]1Cc1ccc(C(F)(F)F)cc1 [PP0191] ([NMeAbu(4,4,4-F3)]I[NMeA][Aze][NPrPhe(4-CF3)][Sar][hPhe(3-Cl-4-CF3)]P[Ac5c][NMeGly(cPent)][NMeD]-Morpholide; lactam N-11) | – | – | B (a compound having 3 or more and less than 10 is denoted as B) | C (A compound having a KD ratio of 0.1 or more and less than 3 is denoted as C) | – | – |
| 107 | CCO[C@@H]1C[C@H]2C(=O)NC3(CC(C)(C)C3)C(=O)N(C)[C@@H](C(CC)CC)C(=O)N(C)[C@H](C(=O)N(C)C)CC(=O)N(C)[C@@H](C(C)C)C(=O)N[C@@H]([C@@H](C)CC)C(=O)N(C)CC(=O)N(C)[C@H]3C/C=C\CCN(C3=O)[C@@H](Cc3ccc(C)cc3)C(=O)N(C)CC(=O)N[C@@H](CCc3ccc(Cl)c(Cl)c3)C(=O)N2C1 [PP2122] | – | – | – | – | A (a compound having 10 or more and less than 20 is denoted as A) | AA (a compound having 20 or more is denoted as AA) |
| 59.1 | CCC[C@H]1C(=O)N[C@@H]([C@@H](C)CC)C(=O)N(C)CC(=O)N(C)[C@H]2C/C=C\CCN(C2=O)[C@@H](Cc2ccc(C)cc2)C(=O)N(C)CC(=O)N[C@@H](CCc2cc(F)c(C(F)F)c(F)c2)C(=O)N2C[C@H](OCC)C[C@H]2C(=O)NC2(CC(C)(C)C2)C(=O)N(C)[C@@H](C2CCCC2)C(=O)N(C)[C@H](C(=O)N(C)C)CC(=O)N1C [PP2782] | – | – | A (a compound having 10 or more and less than 20 is denoted as A) | A (a compound having 10 or more and less than 20 is denoted as A) | – | – |
| 5.4 | CCO[C@@H]1C[C@H]2C(=O)N(C)C3(CCC3)C(=O)N(C)[C@@H](C3CCCC3)C(=O)N(C)[C@H](C(=O)N(C)C)CC(=O)N(C)[C@@H](CC)C(=O)N[C@@H]([C@@H](C)CC)C(=O)N(C)CC(=O)N(C)[C@H]3C/C=C\CCN(C3=O)[C@@H](Cc3ccc(C(F)(F)F)cc3)C(=O)N(C)CC(=O)N[C@@H](CCc3cc(F)c(C(F)(F)F)c(F)c3)C(=O)N2C1 [PP1779] | B (a compound having 3 or more and less than 10 is denoted as B) | A (a compound having 10 or more and less than 20 is denoted as A) | – | – | – | – |
| 38.5 | CCCN1C(=O)CN(C)C(=O)CN(C)C(=O)[C@H]([C@@H](C)CC)NC(=O)[C@H](CC(C)C)N(C)C(=O)C[C@@H](C(=O)N2CCOCC2)NC(=O)[C@H](C2CCCC2)N(C)C(=O)C2(CCC2)NC(=O)[C@@H]2C[C@@H](OCC)CN2C(=O)[C@H](CCc2ccc(C(F)(F)F)c(Cl)c2)NC(=O)CN(C)C(=O)[C@@H]1Cc1ccc(C(F)(F)F)cc1 [PP0324] ([NMeL]I[Sar][Sar][NPrPhe(4-CF3)][Sar][hPhe(3-Cl-4-CF3)][Hyp](Et)[Ac4c][NMeGly(cPent)]D-Morpholide; lactam N-11) | – | – | B (a compound having 3 or more and less than 10 is denoted as B) | B (a compound having 3 or more and less than 10 is denoted as B) | – | – |
| 61.9 | CCO[C@@H]1C[C@H]2C(=O)NC3(CCC3)C(=O)N(C)[C@@H](C(CC)CC)C(=O)N3CCC[C@@H]3CC(=O)N(C)[C@@H](CC3CC3)C(=O)N[C@@H]([C@@H](C)CC)C(=O)N(C)CC(=O)N(C)[C@H]3C/C=C\CCN(C3=O)[C@@H](Cc3ccc(C(F)(F)F)cc3)C(=O)N(C)CC(=O)N[C@@H](CCc3cc(F)c(C(F)(F)F)c(F)c3)C(=O)N2C1 [PP1612] | B (a compound having 3 or more and less than 10 is denoted as B) | B (a compound having 3 or more and less than 10 is denoted as B) | – | – | – | – |
| 94.2 | CCC[C@H]1C(=O)N[C@@H]([C@@H](C)CC)C(=O)N(C)CC(=O)N(C)[C@H]2C/C=C\CCN(C2=O)[C@@H](Cc2ccc(C(F)(F)F)cc2)C(=O)N(C)CC(=O)N[C@@H](CCc2ccc(Cl)c(Cl)c2)C(=O)N2CCCCC[C@H]2C(=O)NC2(CC(C)(C)C2)C(=O)N(C)[C@@H](C(CC)CC)C(=O)N(C)[C@H](C(=O)N(C)C)CC(=O)N1C [PP3031] | – | – | A (a compound having 10 or more and less than 20 is denoted as A) | AA (a compound having 20 or more is denoted as AA) | – | – |
